Tests used:
ECHCG = assay: A. Herbicidal pre-emergence action on harmful plants (Tables A); format: in vivo, Echinochloa crus-galli; conditions: visual grading after ca. 3 weeks vs untreated controls, 100% = plants have died off, 0% = as control plants
Outline: (§1)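 Values are visual percent damage relative to untreated controls, scored ca. 3 weeks after the compound was sprayed on the covering soil of sown pots (sandy loam) at rates up to 1280 g/ha, formulated as WP or EC with 0.5% additive.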

MATIN [1] = assay: as above; format: in vivo, Matricaria inodora; conditions: application rate 1280 g/ha; visual grading after ca. 3 weeks vs untreated controls; 100% = plants have died off, 0% = as control plants
Outline: as §1

SETVI = assay: as above; format: in vivo, Setaria viridis; conditions: visual grading after ca. 3 weeks vs untreated controls, 100% = plants have died off, 0% = as control plants
Outline: as §1

STEME = assay: as above; format: in vivo, Stellaria media; conditions: visual grading after ca. 3 weeks vs untreated controls, 100% = plants have died off, 0% = as control plants
Outline: as §1

POAAN [2] = assay: as above; format: in vivo, Poa annua
Outline: as §1

ALOMY = assay: C. Herbicidal pre-emergence action, weed and crop plants (Tables C); format: in vivo, Alopecurus myosuroides
Excerpt: (§2) Seeds of mono- and dicotyledonous weed plants and crop plants were sown, in plastic or organic planting pots, in sandy loam and covered with soil. The compounds according to the invention, formulated in the form of wettable powders (WP) or as emulsifiable concentrates (EC), were applied to the surface of the covering soil as aqueous suspension or emulsion, with the addition of 0.5% of an additive, at an application rate of 6001 of water/ha (converted). Following treatment, the pots were placed in a greenhouse and kept under optimum growth conditions for the test plants. The visual grading of the damage to the test plants was carried out after ca. 3 weeks in comparison to untreated controls (herbicidal effect in percent (%): 100% effect = plants have died off, 0% effect = as control plants). Tables C1 to C12 below show the effects of selected compounds of the general formula (I) according to table 1 on various harmful plants and an application rate corresponding to 320 g/ha or below obtained by the experimental procedure mentioned above. Table C1: pre-emergence activity at 320g/ha against KCHSC in %

LOLRI = assay: as above; format: in vivo, Lolium rigidum; conditions: application rate 320 g/ha; Table C7a
Excerpt: as §2

MATIN [3] = assay: as above; format: in vivo, Matricaria inodora; conditions: application rate 320 g/ha; Table C8
Excerpt: as §2

ZEAMX = assay: F. Post-emergence effects on crop plants (Tables F); format: in vivo, Zea mays; conditions: crop plant
Outline: (§3)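 Plants were grown in sandy loam in a greenhouse and sprayed post-emergence at the single-leaf stage, 2–3 weeks after sowing. Visual damage was scored after ca. 3 weeks against untreated controls (0% = as control, 100% = dead).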

TRZAS = assay: as above; format: in vivo, Triticum aestivum; conditions: crop plant
Outline: as §3

GLXMA = assay: as above; format: in vivo, Glycine max; conditions: crop plant
Outline: as §3

POAAN [4] = assay: B. Herbicidal post-emergence action on harmful plants (Tables B); format: in vivo, Poa annua
Outline: (§4)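 Greenhouse weeds grown in sandy loam were sprayed post-emergence at the one-leaf stage, 2-3 weeks after sowing. Compounds were applied as WP or EC in water with 0.5% additive at 600 L/ha, at 1280 g/ha or below. Visual damage was rated after about 3 weeks versus untreated plants (0-100%).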

VIOTR = assay: C. Herbicidal pre-emergence action, weed and crop plants (Tables C); format: in vivo, Viola tricolor
Outline: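 Seeds were sown in sandy loam and covered with soil. WP or EC formulations were sprayed onto the soil surface as aqueous suspension or emulsion with 0.5% additive, at rates of 320 g/ha or below. Plants were kept in a greenhouse, and damage was scored visually after about 3 weeks as % effect versus untreated controls (100% = dead, 0% = like control).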

DIGSA = assay: B. Herbicidal post-emergence action on harmful plants (Tables B); format: in vivo, Digitaria sanguinalis; conditions: application rate 1280 g/ha; Table B12a
Outline: as §4

AMARE = assay: A. Herbicidal pre-emergence action on harmful plants (Tables A); format: in vivo, Amaranthus retroflexus
Outline: as §1

[5] = application rate 320 g/ha, Table A7b
[6] = application rate 1280 g/ha, visual grading after ca. 3 weeks vs untreated controls, 100% = plants have died off, 0% = as control plants
[7] = application rate 80 g/ha, Table C2b
[8] = application rate 320 g/ha, Table C2a
[9] = application rate 80 g/ha, Table A7c
[10] = application rate 1280 g/ha, Table B7a
[11] = application rate 320 g/ha, Table C12a

| Structure (SMILES) | pre-emergence activity against ECHCG (ECHCG; application rate 320 g/ha) [%] | pre-emergence activity against ECHCG (ECHCG; application rate 1280 g/ha) [%] | pre-emergence activity against MATIN (MATIN [1]) [%] | pre-emergence activity against SETVI (SETVI; application rate 320 g/ha) [%] | pre-emergence activity against SETVI (SETVI; application rate 1280 g/ha) [%] | pre-emergence activity against STEME (STEME; application rate 320 g/ha) [%] | pre-emergence activity against STEME (STEME; application rate 1280 g/ha) [%] | pre-emergence activity against POAAN (POAAN [2]; [5]) [%] | pre-emergence activity against POAAN (POAAN [2]; [6]) [%] | pre-emergence activity against ALOMY (ALOMY; [8]) [%] | pre-emergence activity against LOLRI (LOLRI) [%] | post-emergence activity against ZEAMX in % (ZEAMX; application rate 80 g/ha) [%] | post-emergence activity against TRZAS in % (TRZAS; application rate 80 g/ha) [%] | post-emergence activity against TRZAS in % (TRZAS; application rate 320 g/ha) [%] | post-emergence activity against GLXMA in % (GLXMA; application rate 320 g/ha) [%] | pre-emergence activity against POAAN (POAAN [2]; [9]) [%] | post-emergence activity against POAAN (POAAN [4]; [10]) [%] | pre-emergence activity against VIOTR (VIOTR; [11]) [%] | post-emergence activity against ZEAMX in % (ZEAMX; application rate 320 g/ha) [%] | further results |
| --- | --- | --- | --- | --- | --- | --- | --- | --- | --- | --- | --- | --- | --- | --- | --- | --- | --- | --- | --- | --- |
| COCc1nn(C)cc1C(=O)N1CCCC1C(O)c1ccccc1F (single isomer, unassigned) [Example I-053] | 90 | 90 | 90 | 90 | 90 | 90 | 90 | 90 | 100 | 90 | 90 | 0 | 10 | 20 | 20 | – | – | – | – | pre-emergence activity against ALOMY (ALOMY; [7]): 80%; pre-emergence activity against MATIN (MATIN [3]): 80% |
| COCc1nn2c(c1C(=O)N1CCCC1Cc1ccccc1F)CCC2 (racemic) [Example I-022] | 90 | 100 | 90 | 90 | 90 | – | – | 100 | 100 | – | 100 | 0 | 0 | 0 | 0 | 90 | 90 | 80 | 0 | – |
| CNC(=O)n1cc(C(=O)N2CCCC2Cc2ccccc2F)c(COC)n1 (racemic) [Example I-051] | 90 | 90 | 90 | 90 | 90 | 90 | 90 | 100 | 100 | 90 | 90 | 20 | – | – | 10 | 90 | 90 | 80 | – | pre-emergence activity against ECHCG (ECHCG; application rate 80 g/ha): 90%; pre-emergence activity against ALOMY (ALOMY; [7]): 80%; pre-emergence activity against VIOTR (VIOTR; application rate 80 g/ha, Table C12b): 80% |
| Cn1cc(C(=O)N2CCCC2Cc2ccc(F)cc2F)c(COc2ccccc2)n1 (racemic) [Example I-008] | – | 90 | 90 | – | 90 | – | 90 | 100 | 100 | 100 | – | 0 | 20 | 20 | 0 | 100 | 90 | 90 | 0 | – |
| COCc1nn(C(=O)OC(C)(C)C)cc1C(=O)N1CCCC1Cc1ccccc1F (racemic) [Example I-040] | 90 | 100 | 90 | 90 | 90 | 90 | 90 | 100 | 100 | 80 | 100 | 0 | – | – | – | – | – | – | 0 | pre-emergence activity against MATIN (MATIN [3]): 80%; post-emergence activity against GLXMA in % (GLXMA; application rate 80 g/ha): 0% |
| Cn1cc(C(=O)N2CCCC2Cc2ccccc2F)c(COc2ccccc2)n1 (racemic) [Example I-006] | – | 90 | 90 | – | – | 90 | 90 | 100 | 100 | 90 | – | 10 | 20 | 20 | – | 100 | 90 | – | 20 | post-emergence activity against DIGSA (DIGSA): 90%; post-emergence activity against GLXMA in % (GLXMA; application rate 80 g/ha): 0% |
| COCc1c(C(=O)N2CCCC2Cc2ccccc2F)cnn1C (single isomer, unassigned) [Example I-157] | 100 | 100 | 90 | 90 | 90 | 90 | 100 | 100 | 100 | 90 | 90 | 0 | 0 | 20 | 0 | 100 | 100 | 90 | 0 | pre-emergence activity against ECHCG (ECHCG; application rate 80 g/ha): 100%; pre-emergence activity against AMARE (AMARE; application rate 320 g/ha, Table A8b): 90%; pre-emergence activity against AMARE (AMARE; [6]): 90%; post-emergence activity against POAAN (POAAN [4]; application rate 320 g/ha, Table B7b): 100% |
